Experimental data reported in US8106055B2, “Substituted amide compounds” (Gruenenthal GmbH, priority 2007, dated 2012).

Experiments:
[1] = biological target: T1, human bradykinin 1 receptor (B1R) (Homo sapiens, UniProt P46663); assay: Functional investigation on the human bradykinin 1 receptor (B1R), Ca2+ FLIPR assay in CHO K1 hB1R cells; type: cell-based; settings: test substance 10 μM, Ca2+ FLIPR, CHO K1 hB1R cells; for B1R Ant. h [10 μM] % Inhibition: B1R antagonism human; for inhibition at 10 µM: CHO-K1, B1R antagonism human, read-out: B1R Ant. h [10 μM] % Inhibition
T1 construct: expressed in transfected cells; host or cells: CHO K1 cells
T1 sequence (P46663 1-353): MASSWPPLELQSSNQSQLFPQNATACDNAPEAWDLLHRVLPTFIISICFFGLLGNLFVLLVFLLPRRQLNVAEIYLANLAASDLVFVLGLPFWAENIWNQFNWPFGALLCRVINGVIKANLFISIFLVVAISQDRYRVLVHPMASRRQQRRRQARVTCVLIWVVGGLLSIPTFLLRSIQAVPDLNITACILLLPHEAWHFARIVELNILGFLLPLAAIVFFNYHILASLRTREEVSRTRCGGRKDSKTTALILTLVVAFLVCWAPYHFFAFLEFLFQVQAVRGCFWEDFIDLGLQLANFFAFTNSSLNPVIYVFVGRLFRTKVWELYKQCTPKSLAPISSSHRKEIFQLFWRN
In short: (§1)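 Fluo-4 Ca2+ readout, peak fluorescence. Stable CHO K1 transfectants; compound pre-incubated 10-20 min, then EC80 agonist—Lys-Des-Arg9-BK for hB1R, Des-Arg9-BK for rB1R. % inhibition vs maximal inhibition; IC50 from multiple concentrations, duplicate/triplicate, ≥2 independent runs.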

[2] = biological target: T2, bradykinin 1 receptor (B1R) of the rat (Rattus norvegicus, UniProt P97583); assay: Functional investigation on the rat bradykinin 1 receptor (B1R), Ca2+ FLIPR assay in CHO K1 rB1R cells; type: cell-based; settings: test substance 10 μM, Ca2+ FLIPR, CHO K1 rB1R cells; for B1R Ant. r [10 μM] % Inhibition: B1R antagonism rat; for inhibition at 10 µM: CHO-K1, B1R antagonism rat, read-out: B1R Ant. r [10 μM] % Inhibition
T2 construct: expressed in transfected cells; host or cells: CHO K1 cells
T2 sequence (P97583 1-337): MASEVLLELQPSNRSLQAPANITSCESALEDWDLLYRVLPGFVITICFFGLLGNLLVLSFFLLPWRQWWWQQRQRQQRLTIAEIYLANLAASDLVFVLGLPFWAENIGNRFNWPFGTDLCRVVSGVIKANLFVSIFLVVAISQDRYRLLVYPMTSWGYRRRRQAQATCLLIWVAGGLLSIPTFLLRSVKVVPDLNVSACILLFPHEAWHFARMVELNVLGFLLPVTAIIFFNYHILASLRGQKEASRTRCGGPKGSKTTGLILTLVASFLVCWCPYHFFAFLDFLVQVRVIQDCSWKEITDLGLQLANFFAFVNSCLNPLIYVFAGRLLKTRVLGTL
In short: as §1

SMILES	B1R Ant. h [10 μM] % Inhibition [1]	B1R Ant. r [10 μM] % Inhibition [2]	inhibition at 10 µM [1]	inhibition at 10 µM [2]
CN(C)C(c1ccc(F)cc1)C1CCC(CCNC(=O)COC2CCN(S(=O)(=O)c3ccccc3)CC2)CC1 (stereo not drawn) [Example 553]	−21%	−14%		
CN(C)C(CCc1ccccc1)C1CCC(CNC(=O)COCCN(C)S(=O)(=O)c2c(Cl)cccc2Cl)CC1 (stereo not drawn) [Example 476]	103%	74%		
Cc1ccc(S(=O)(=O)N2CCC(OCC(=O)NCC3CCC(C(c4ccccc4)N(C)C)CC3)C2)cc1 (stereo not drawn) [Example 125, N-((4-((dimethylamino)(phenyl)methyl)cyclohexyl)methyl)-2-(1-tosylpyrrolidin-3-yloxy)acetamide]			26%	6%
CCN(CCOCC(=O)NCC1CCC(C(c2cccc(F)c2)N(C)C)CC1)S(=O)(=O)c1c(C)cc(OC)c(C)c1C (stereo not drawn) [Example 117, N-((4-((dimethylamino)(3-fluorophenyl)methyl)cyclohexyl)methyl)-2-(2-(N-ethyl-4-methoxy-2,3,6-trimethylphenylsulfonamido)ethoxy)acetamide]			76%	77%
COc1ccc(S(=O)(=O)N2CCCCC2COCC(=O)NCC2CCC(C(CCc3ccccc3)N(C)C)CC2)cc1OC (stereo not drawn) [Example 559]	2%	−12%		
CN(C)C(CCc1ccccc1)C1CCC(CNC(=O)COC2CCN(S(=O)(=O)c3ccccc3)CC2)CC1 (stereo not drawn) [Example 578]	−14%	12%		
COc1cc(C)c(S(=O)(=O)N2CCC(CCOCC(=O)NCCC3CCC(C(c4ccc(Cl)cc4)N(C)C)CC3)CC2)c(C)c1C (stereo not drawn) [Example 561]	−1%	−12%		
CN(C)C(c1cccc(F)c1)C1CCC(CNC(=O)COCC2CCCN2S(=O)(=O)c2ccc(Cl)c(Cl)c2)CC1 (stereo not drawn) [Example 119, 2-((1-(3,4-dichlorophenylsulfonyl)pyrrolidin-2-yl)methoxy)-N-((4-((dimethylamino)(3-fluorophenyl)methyl)cyclohexyl)methyl)acetamide]			67%	-6%
COc1ccc(S(=O)(=O)N(C)CCOCC(=O)NCC2CCC(C(CCc3ccccc3)N(C)C)CC2)cc1 (stereo not drawn) [Example 550]	62%	50%		
CN(C)C(c1ccc(Cl)cc1)C1CCC(CNC(=O)COCCC2CCN(S(=O)(=O)c3ccccc3)CC2)CC1 (stereo not drawn) [Example 584]	−20%	41%		
COc1cc(C)c(S(=O)(=O)N(CCOCC(=O)NCC2CCC(C(c3ccc(F)cc3)N(C)C)CC2)Cc2ccccc2)c(C)c1C (stereo not drawn) [Example 563]	54%	−16%		
CN(C)C(CCc1ccccc1)C1CCC(CNC(=O)COC2CCCN(S(=O)(=O)c3ccccc3)C2)CC1 (stereo not drawn) [Example 558]	14%	12%		
Cc1cc(C)c(S(=O)(=O)N(C)CCOCC(=O)NC2CCC(C(c3ccccc3)N(C)C)CC2)c(C)c1 (stereo not drawn) [Example 63, N-(4-((dimethylamino)(phenyl)methyl)cyclohexyl)-2-(2-(N,2,4,6-tetramethylphenylsulfamido)ethoxy)acetamide]	92%	8%		
COc1ccc(S(=O)(=O)N2CCCCC2COCC(=O)NCCC2CCC(C(c3cccc(F)c3)N(C)C)CC2)cc1OC (stereo not drawn) [Example 581]	2%	8%		
COc1cc(C)c(S(=O)(=O)N2CCCC(OCC(=O)NCCC3CCC(C(c4cccs4)N(C)C)CC3)C2)c(C)c1C (stereo not drawn) [Example 130, N-(2-(4-((dimethylamino)(thiophen-2-yl)methyl)cyclohexyl)ethyl)-2-(1-(4-methoxy-2,3,6-trimethylphenylsulfonyl)piperidin-3-yloxy)acetamide]			30%	15%
COc1ccc(S(=O)(=O)N2CCCCC2COCC(=O)NC2CCC(C(c3ccc(F)cc3)N(C)C)CC2)cc1OC (stereo not drawn) [Example 555]	−14%	0%		
CN(C)C(c1cccs1)C1CCC(CCNC(=O)COCCN(Cc2ccccc2)S(=O)(=O)c2ccccc2)CC1 (stereo not drawn) [Example 116, 2-(2-(N-benzylphenylsulfonamido)ethoxy)-N-(2-(4-((dimethylamino)(thiophen-2-yl)methyl)cyclohexyl)ethyl)acetamide]			28%	14%
CN(C)C(c1ccc(F)cc1)C1CCC(CCNC(=O)COCCN(C)S(=O)(=O)c2ccc(Cl)cc2Cl)CC1 (stereo not drawn) [Example 586]	95%	76%		
COc1ccc(S(=O)(=O)N(C)CCOCC(=O)NCC2CCC(C(CCc3ccccc3)N(C)C)CC2)cc1OC (stereo not drawn) [Example 571]	−10%	15%		
CN(C)C(c1ccccc1)C1CCC(CNC(=O)COCCN(C)S(=O)(=O)c2ccc(Cl)cc2)CC1 (stereo not drawn) [Example 110, 2-(2-(4-chloro-N-methylphenylsulfonamido)ethoxy)-N-((4-((dimethylamino) (phenyl)methyl)cyclohexyl)methyl)acetamide]			21%	10%
CN(C)C(CCc1ccccc1)C1CCC(CNC(=O)COC2CCN(S(=O)(=O)c3ccc(Cl)cc3)C2)CC1 (stereo not drawn) [Example 557]	20%	29%		
COc1ccc(S(=O)(=O)N2CCCCC2COCC(=O)NCC2CCC(C(CCc3ccccc3)N(C)C)CC2)cc1OC (stereo not drawn) [Example 570]	−18%	4%		
COc1ccc(S(=O)(=O)N2CCCCC2COCC(=O)NCC2CCC(C(c3ccc(F)cc3)N(C)C)CC2)cc1OC (single isomer, unassigned) [Example 537]	−15%	8%		
CN(C)C(c1ccc(F)cc1)C1CCC(CNC(=O)COCCC2CCN(S(=O)(=O)c3ccccc3)CC2)CC1 (stereo not drawn) [Example 583]	−27%	20%		
CN(C)C(c1ccccc1)C1CCC(CNC(=O)COC2CCCN(S(=O)(=O)c3ccccc3)C2)CC1 (stereo not drawn) [Example 114, N-((4-((dimethylamino)(phenyl)methyl)cyclohexyl)methyl)-2-(1-(phenylsulfonyl)piperidin-3-yloxy)acetamide]			-17%	8%
COc1cc(C)c(S(=O)(=O)N2CCC(CCOCC(=O)NC3CCC(C(c4cccc(F)c4)N(C)C)CC3)CC2)c(C)c1C (stereo not drawn) [Example 118, N-(4-((dimethylamino)(3-fluorophenyl)methyl)cyclohexyl)-2-(2-(1-(4-methoxy-2,3,6-trimethylphenylsulfonyl)piperidin-4-yl)ethoxy)acetamide]			23%	-4%
CN(C)C(c1cccs1)C1CCC(CCNC(=O)COCC2CCCN(S(=O)(=O)c3ccccc3)C2)CC1 (stereo not drawn) [Example 115, N-(2-(4-((dimethylamino)(thiophen-2-yl)methyl)cyclohexyl)ethyl)-2-((1-(phenylsulfonyl)piperidin-3-yl)methoxy)acetamide]			10%	21%
CN(C)C(c1cccs1)C1CCC(CCNC(=O)COC2CCN(S(=O)(=O)c3cccc(C(F)(F)F)c3)C2)CC1 (stereo not drawn) [Example 96, N-(2-(4-((dimethylamino)(thiophen-2-yl)methyl)cyclohexyl)ethyl)-2-(1-(3-(trifluoromethyl)phenylsulfonyl)pyrrolidin-3-yloxy)acetamide]			4%	26%
COc1cc(C)c(S(=O)(=O)N2CCC(OCC(=O)NC3CCC(C(c4cccs4)N(C)C)CC3)C2)c(C)c1 (stereo not drawn) [Example 98, N-(4-((dimethylamino)(thiophen-2-yl)methyl)cyclohexyl)-2-(1-(4-methoxy-2,6-dimethylphenylsulfonyl)pyrrolidin-3-yloxy)acetamide]			64%	69%
CN(C)C(c1cccc(F)c1)C1CCC(NC(=O)COC2CCCCC2N(C)S(=O)(=O)c2ccc(Cl)c(Cl)c2)CC1 (stereo not drawn) [Example 132, 2-(2-(3,4-dichloro-N-methylphenylsulfonamido)cyclohexyloxy)-N-(4-((dimethylamino)(3-fluorophenyl)methyl)cyclohexyl)acetamide]			40%	2%
